Measurements taken from ChEMBL document CHEMBL1152010, “Synthesis of new amide-linked N-hydroxyurea 5-lipoxygenase inhibitors by an intramolecular oxygen to nitrogen acyl transfer” (Bioorg Med Chem Lett, 1993).

Columns and labels:
[1] = Half life after oral dosing in rats; assay type: ADME, organism-based; conditions: rat, in vivo
Homo sapiens = organism: Homo sapiens; experiment: Tested for the inhibition of leukotriene biosynthesis in human whole blood; assay type: functional

Row | half-life [1] [h] | IC50 (Homo sapiens) [nM] | Compound
1 | 3.6 | 230 | NC(=O)N(O)CCNC(=O)c1cccc(Oc2ccccc2)c1
2 | 1.5 | 90 | NC(=O)N(O)C/C=C/c1cccc(Oc2ccccc2)c1
